Source: ChEMBL document CHEMBL5729588, “Spiro-oxazolones” (2023)

target: Vasopressin V1a receptor (Homo sapiens, UniProt P37288); test: Pharmacological Assay: The human V1a receptor was cloned by RT-PCR from total human liver RNA. The coding sequence was subcloned in an expression vector after sequencing to confirm the identity of the amplified sequence. […] Cell membranes were prepared from HEK293 cells transiently transfected with the expression vector and grown in 20 liter fermenters with the following protocol. 50 g of cells are re-suspended in 30 ml freshly prepared ice cold Lysis buffer ([…] HEPES. 1 mM EDTA, 10 mM MgCl adjusted to pH=7.4+complete cocktail of protease inhibitor (Roche Diagnostics)). Homogenized with Polytron for 1 min and sonicated on ice for 2×2 minutes at 80% intensity (Vibracell sonicator). The preparation is centrifuged 20 min at 500 g at 4° C., the pellet is discarded and the supernatant centrifuged 1 hour at 43'000 g at 4° C. (19'000 rpm). The pellet is re-suspended in 12.5 ml Lysis buffer+12.5 ml Sucrose 20% and homogenized using a Polytron for 1-2 min. The protein concentration is determined by the Bradford method and aliquots are stored at −80° C. until use. For binding studies 60 mg Yttrium silicate SPA beads (Amersham) are mixed with an aliquot of membrane in binding buffer (50 mM Tris, 120 mM NaCl, 5 mM KCl, 2 mM CaCl, 10 mM MgCl) for 15 minutes with mixing. 50 μl of bead/membrane mixture is then added to each well of a 96 well plate, followed by […] of 4 nM 3H-Vasopressin (American Radiolabeled Chemicals). For total binding measurement 100 μl of binding buffer are added to the respective wells, for non-specific binding 100 μl of 8.4 mM cold vasopressin and for compound testing 100 μl of a serial dilution of each compound in 2% DMSO. The plate is incubated 1 h at room temperature, centrifuged 1 min at 1000 g and counted on a Packard Top-Count. Non-specific binding counts are subtracted from each well and data is normalized to the maximum specific binding set at 100%. To calculate an IC 50 the curve is fitted using a non-linear regression model (XLfit) and the K, is calculated using the Cheng-Prussoff equation.
Sequence (P37288 whole entry): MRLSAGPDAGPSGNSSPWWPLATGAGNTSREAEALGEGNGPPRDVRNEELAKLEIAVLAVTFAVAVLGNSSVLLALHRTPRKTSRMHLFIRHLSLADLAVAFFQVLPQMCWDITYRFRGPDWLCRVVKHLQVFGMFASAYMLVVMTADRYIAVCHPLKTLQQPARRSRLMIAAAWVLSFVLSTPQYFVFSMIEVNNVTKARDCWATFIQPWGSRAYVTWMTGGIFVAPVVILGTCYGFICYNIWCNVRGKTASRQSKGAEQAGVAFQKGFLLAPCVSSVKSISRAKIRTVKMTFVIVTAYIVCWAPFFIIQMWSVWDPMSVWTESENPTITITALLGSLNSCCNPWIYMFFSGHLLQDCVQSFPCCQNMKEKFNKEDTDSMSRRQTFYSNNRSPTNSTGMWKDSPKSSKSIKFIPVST

Ki [nM]	SMILES
1	O=C1N=C(N2CCC3(CC2)OCc2ccccc23)OC12CCc1ccccc1C2 (centres undefined)
10	Cc1cc2c(cn1)COC21CCN(C2=NC(=O)C3(Cc4ccccc4C3)O2)CC1
50.1	O=C1N=C(N2CCC3(CC2)OCc2ccccc23)OC12CCCc1ccccc12 (centres undefined)
1	O=C1N=C(N2CCC3(CC2)OCc2ccccc23)OC12Cc1ccc(Cl)cc1C2 (centres undefined)
15.8	Cc1cc2c(cn1)C1(CCN(C3=NC(=O)C4(Cc5ccccc5C4)O3)CC1)OC2=O
0.794	O=C1OC2(CCN(C3=NC(=O)C4(Cc5ccccc5C4)O3)CC2)c2cc(O)ccc21
3.16	Cc1cc2c(cn1)C1(CCN(C3=NC(=O)C4(Cc5ccccc5C4)O3)CC1)OC2
12.6	Cc1cc2c(cn1)C(=O)OC21CCN(C2=NC(=O)C3(Cc4ccccc4C3)O2)CC1
1	O=C1OC2(CCN(C3=NC(=O)C4(Cc5ccccc5C4)O3)CC2)c2ccccc21
